In assay [1] the target is Human CB1 Receptor-1 (hCB1) (Homo sapiens (Human), UniProt P21554). The experiment in a line: hCB1 Gai cyclic AMP (cAMP) TR-FRET assay, antagonism of EC80 CP55940 with forskolin. The class given is cell-based. The settings on record: hCB1 cells, 30 min pre-incubation. As to the method:
(§1) Example 3. Biochemical Methods Human CB1 Receptor-1 (hCB1) and Human CB1 Receptor-1b (hCBib)
(§2) hCB1/hCB1 b Gai Cyclic AMP (cAMP) Assays: Cells were seeded in a 384-well plate at an appropriate density from frozen cells. The cAMP assays were performed according to the manufacturer's protocol using MULTISCREEN™ TR-FRET cAMP 1.0 No Wash Assay Kit. Cells (hCB1 or hCB1 b) were pre-incubated with customer compounds for 30 minutes at rt followed by addition of EC80 CP55940 concentration and Forskolin. Cells were then incubated for 20 minutes at 37C. The reaction was terminated by sequentially adding sequentially adding MULTISCREEN™ Eu-labeled cAMP and MULTISCREEN™ 650-labeled anti-cAMP antibody in lysis buffer. The plate was then incubated at rt for 30 minutes before reading fluorescent emissions at 620 nm and 665 with excitation at 314 nm on FlexStation III (Molecular Devices). The results are shown in Table 2 (“***” denotes an IC50<100 nM; “**” denotes an IC50 between 100 nM and 500 nM, and “*” denotes an IC50>500 nM).
(In general: In TR-FRET formats the signal depends on donor and acceptor labels being close together.)

Assay [2] has as its target Human CB1 Receptor-1b (hCB1b) (Homo sapiens (Human), UniProt P21554). Kind of assay: hCB1b Gai cyclic AMP (cAMP) TR-FRET assay, antagonism of EC80 CP55940 with forskolin. It is filed as cell-based. The following applies: hCB1b cells, 30 min pre-incubation, read-out: CB1b IC50. As to the method: as §1, §2

Consider 10 molecules from patent US20250248973A1, “CANNABINOID RECEPTOR 1 ANTAGONISTS/INVERSE AGONISTS AND USES THEREOF” (Corbus Pharmaceuticals, Inc., priority 2022, published 2025).

The structures appear in SMILES notation.

Chain of Human CB1 Receptor-1b (hCB1b) (P21554 other isoform, or with tags, fused parts or gaps): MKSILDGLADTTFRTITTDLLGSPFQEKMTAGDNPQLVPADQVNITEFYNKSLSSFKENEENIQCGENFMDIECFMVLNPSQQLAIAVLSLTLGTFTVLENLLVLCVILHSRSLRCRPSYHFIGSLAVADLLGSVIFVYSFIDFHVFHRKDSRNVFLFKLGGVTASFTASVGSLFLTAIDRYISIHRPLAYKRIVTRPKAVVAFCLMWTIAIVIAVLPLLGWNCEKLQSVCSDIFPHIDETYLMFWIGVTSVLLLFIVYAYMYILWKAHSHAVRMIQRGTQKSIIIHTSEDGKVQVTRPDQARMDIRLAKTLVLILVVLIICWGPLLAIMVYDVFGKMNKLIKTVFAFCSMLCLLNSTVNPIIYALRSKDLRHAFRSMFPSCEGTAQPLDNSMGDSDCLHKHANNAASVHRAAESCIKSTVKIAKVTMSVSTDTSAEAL
Chain of Human CB1 Receptor-1 (hCB1) (P21554 whole entry): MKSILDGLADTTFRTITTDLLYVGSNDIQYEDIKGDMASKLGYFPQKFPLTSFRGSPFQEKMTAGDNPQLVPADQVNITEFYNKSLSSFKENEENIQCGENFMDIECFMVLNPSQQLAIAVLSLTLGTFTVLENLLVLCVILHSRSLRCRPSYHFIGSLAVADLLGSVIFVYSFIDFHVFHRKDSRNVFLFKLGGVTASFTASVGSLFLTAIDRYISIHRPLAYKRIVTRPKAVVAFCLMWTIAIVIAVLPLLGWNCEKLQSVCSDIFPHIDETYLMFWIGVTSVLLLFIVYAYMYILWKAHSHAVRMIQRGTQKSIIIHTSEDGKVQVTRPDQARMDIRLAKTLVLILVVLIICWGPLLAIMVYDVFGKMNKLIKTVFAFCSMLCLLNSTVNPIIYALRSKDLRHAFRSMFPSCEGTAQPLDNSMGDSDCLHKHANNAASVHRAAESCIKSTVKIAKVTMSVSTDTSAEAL

For `NS(=O)(=O)CCN/C(=N\S(=O)(=O)c1ccc(Cl)cc1)N1C[C@H](c2ccccc2)C(c2ccc(F)cc2)=N1` [Compound 45, (S,E)-N′-((4-chlorophenyl)sulfonyl)-3-(4-fluorophenyl)-4-phenyl-N-(2-sulfamoylethyl)-4,5-dihydro-1H-pyrazole-1-carboximidamide], the IC50 in assay [1] and in assay [2] was below 100 nM in each case.

In the case of `NS(=O)(=O)CCNC(=NS(=O)(=O)c1ccc(F)cc1)N1C[C@H](c2ccccc2)C(c2ccc(F)cc2)=N1` [Compound 51, (S)-3-(4-fluorophenyl)-N′-((4-fluorophenyl)sulfonyl)-4-phenyl-N-(2-sulfamoylethyl)-4,5-dihydro-1H-pyrazole-1-carboximidamide], the IC50 in assay [1] and in assay [2] was 100 to 500 nM in each case.

`C[C@H](CN/C(=N\S(=O)(=O)c1ccc(F)cc1)N1C[C@H](c2ccccc2)C(c2ccc(F)cc2)=N1)S(N)(=O)=O` [Compound 53, (S,E)-3-(4-fluorophenyl)-N′-((4-fluorophenyl)sulfonyl)-4-phenyl-N-((R)-2-sulfamoylpropyl)-4,5-dihydro-1H-pyrazole-1-carboximidamide]: the IC50 in assay [1] and in assay [2] was below 100 nM in each case.

As for `C[C@@H](CN/C(=N\S(=O)(=O)c1ccc(F)cc1)N1C[C@H](c2ccccc2)C(c2ccc(F)cc2)=N1)S(N)(=O)=O` [Compound 54, (S,E)-3-(4-fluorophenyl)-N′-((4-fluorophenyl)sulfonyl)-4-phenyl-N-((S)-2-sulfamoylpropyl)-4,5-dihydro-1H-pyrazole-1-carboximidamide], the IC50 in assay [1] and in assay [2] was below 100 nM in each case.

With `C[C@H](CS(N)(=O)=O)N/C(=N\S(=O)(=O)c1ccc(Cl)cc1)N1C[C@H](c2ccccc2)C(c2ccc(F)cc2)=N1` [Compound 57, (S,E)-N′-((4-chlorophenyl)sulfonyl)-3-(4-fluorophenyl)-4-phenyl-N-((R)-1-sulfamoylpropan-2-yl)-4,5-dihydro-1H-pyrazole-1-carboximidamide], the 50% inhibitory concentration (IC50) in assay [1] and in assay [2] was above 500 nM in each case.

With `C#Cc1ccc(S(=O)(=O)N=C(NCCS(N)(=O)=O)N2C[C@H](c3ccccc3)C(c3ccc(F)cc3)=N2)cc1` [Compound 59, (S)-N′-((4-ethynylphenyl)sulfonyl)-3-(4-fluorophenyl)-4-phenyl-N-(2-sulfamoylethyl)-4,5-dihydro-1H-pyrazole-1-carboximidamide], the half-maximal inhibitory concentration (IC50) in assay [1] was 100 to 500 nM; in assay [2] it was below 100 nM.

Take `NS(=O)(=O)CCNC(=NS(=O)(=O)c1cccnc1)N1C[C@H](c2ccccc2)C(c2ccc(Cl)cc2)=N1` [Compound 65, (S)-3-(4-chlorophenyl)-4-phenyl-N′-(pyridin-3-ylsulfonyl)-N-(2-sulfamoylethyl)-4,5-dihydro-1H-pyrazole-1-carboximidamide]: the IC50 in assay [1] and in assay [2] was below 100 nM in each case.

Consider `Cn1cnc(S(=O)(=O)N=C(NCCS(N)(=O)=O)N2C[C@H](c3ccccc3)C(c3ccc(Cl)cc3)=N2)c1` [Compound 67, (S)-3-(4-chlorophenyl)-N′-((1-methyl-1H-imidazol-4-yl)sulfonyl)-4-phenyl-N-(2-sulfamoylethyl)-4,5-dihydro-1H-pyrazole-1-carboximidamide], for which the half-maximal inhibitory concentration (IC50) in assay [1] and in assay [2] was above 500 nM each time.

On to `NS(=O)(=O)CCNC(=NS(=O)(=O)c1cccnc1)N1C[C@H](c2ccccc2)C(c2ccc(F)cc2)=N1` [Compound 69, (S)-3-(4-fluorophenyl)-4-phenyl-N′-(pyridin-3-ylsulfonyl)-N-(2-sulfamoylethyl)-4,5-dihydro-1H-pyrazole-1-carboximidamide], for which the concentration for half-maximal inhibition (IC50) in assay [1] and in assay [2] was above 500 nM in each case.

Regarding `Cn1ncc(S(=O)(=O)N=C(NCCS(N)(=O)=O)N2C[C@H](c3ccccc3)C(c3ccc(Cl)cc3)=N2)n1` [Compound 73, (S)-3-(4-chlorophenyl)-N′-((2-methyl-2H-1,2,3-triazol-4-yl)sulfonyl)-4-phenyl-N-(2-sulfamoylethyl)-4,5-dihydro-1H-pyrazole-1-carboximidamide], the IC50 in assay [1] and in assay [2] was 100 to 500 nM in each case.

The IC50 is the midpoint of a concentration-inhibition curve.
